In patent US6043228A, “O^6 -substituted guanine derivatives, a process for their preparation and their use in treating tumor cells” (Cancer Research Campaign Technology Limited, priority 1993, dated 2000):
Values joined by “and” are separate entries in the source; they are usually repeats but may differ in a detail not shown here. Equal values may be shown once. “Also recorded” adds a separate entry of the source.

Columns and labels:
recombinant human ATase = target: T1, recombinant human ATase (Homo sapiens, UniProt P16455); test: In vitro ATase inactivation assay (incubation with inactivators and ATase assay); type: biochemical; conditions: for ATase inactivation in vitro, result in words: recombinant human ATase, standard conditions
T1 construct: made in house
T1 sequence (P16455 1-207): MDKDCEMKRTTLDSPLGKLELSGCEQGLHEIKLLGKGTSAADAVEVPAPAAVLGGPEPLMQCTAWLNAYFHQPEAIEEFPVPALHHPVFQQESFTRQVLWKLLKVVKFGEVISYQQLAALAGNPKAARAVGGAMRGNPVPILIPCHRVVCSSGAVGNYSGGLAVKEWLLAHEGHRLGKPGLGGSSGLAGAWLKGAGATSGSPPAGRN
Description: The cDNA cloning and overexpression of the human ATase has been reported previously^23. Purification of the recombinant proteins was achieved either by affinity chromatography through a DNA-cellulose column as described by Wilkinson et al.,^25, 26 or by DEAE-cellulose ion-exchange chromatography. For the latter, the ATase protein was partially purified by ammonium sulphate precipitation (30-60%) and dialysed against 10 mM Tris-HCl pH 7.5, 1 mM DTT, 2 mM EDTA, 10% glycerol, before loading on a DEAE-cellulose column. The ATase was then eluted with a 0-0.1 M NaCl gradient.
Compounds to be tested were dissolved in DMSO to a final concentration of 10 mM and diluted just before use in buffer I containing 1 mg/ml bovine serum albumin (IBSA). Recombinant ATase was diluted in IBSA and titrated in order that the reaction be conducted under ATase, and not substrate, limiting conditions. […] Following acid hydrolysis of the DNA as previously described^21 the [^3 H]-methylated protein was recovered and quantitated by liquid scintillation counting. Samples were typically assayed in duplicate and experiments repeated several times. I50 is the concentration of inactivator required to produce a 50% reduction in ATase activity.

DBA2 mice = test: Toxicity of inactivators in combination with temozolomide in non-tumour-bearing DBA2 mice; type: in vivo, mouse; conditions: 20 mg/kg inactivator + temozolomide 100 mg/kg i.p., four consecutive days (FIG. 25)
Description: FIG. 25 is a graph showing the survival of animals in a comparative test of toxicity of BeG, B.4205 and B.4280 in combination with temozolomide (TZ) in non-tumour-bearing DBA, mice. Animals were given temozolomide alone (100 mg/kg i.p) or BeG (10 or 20 mg/kg i.p.), B.4205 (10 or 20 mg/kg i.p.) or B.4280 (10 or 20 mg/kg i.p.) followed one hour later by temozolomide (100 mg/kg i.p.) on four consecutive days. The vehicles were corn oil for the inactivators and PBS (20% DMSO) for temozolomide.

[1] = target: T2, ATase in human melanoma xenografts (Homo sapiens, UniProt P16455); test: ATase activity in human melanoma (A375) xenografts grown in nude mice after inactivator; type: in vivo; conditions: with temozolomide 50 mg/kg i.p., three consecutive days, 24 hours after final dose (FIG. 19)
T2 construct: A375M cells are human melanoma cells from which the xenografts described below were established; endogenous in cells; host or cells: A375M xenograft grown in nude mice
T2 sequence (P16455 1-207): T1 sequence (P16455 1-207)

ATase = target: T3, ATase (Mus musculus, UniProt P26187); test: ATase activity in tissues of nude mice after inactivator; type: in vivo; conditions: for inactivation of ATase in mouse tissues, in words: single dose (FIG. 18, Table 10)
T3 construct: Effect of B.4280 on ATase activity in several tissues of nude mice; from tissue; host or cells: liver, lung, kidney, spleen, brain, testis and bone marrow of nu/nu mice
T3 sequence (P26187 1-211): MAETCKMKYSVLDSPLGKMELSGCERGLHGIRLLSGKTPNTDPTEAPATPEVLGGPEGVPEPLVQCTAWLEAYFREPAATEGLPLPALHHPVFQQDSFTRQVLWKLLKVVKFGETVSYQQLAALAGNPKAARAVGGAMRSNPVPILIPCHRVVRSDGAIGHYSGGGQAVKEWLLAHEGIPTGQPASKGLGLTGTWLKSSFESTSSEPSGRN
Description: ATase substrate DNA was prepared by incubation of purified calf thymes DNA with N-[^3 H]-methyl-N-nitrosuourea (18.7 Ci/mmole, Amersham International). Cell or tissue extracts (see 4.4) were incubated with [^3 H]-methylated-DNA substrate (100 μl containing 6.7 μg of DNA and 100 fmol of O^6 -[^3 H]methylguanine) at 37° C. for 60 mins. Following acid hydrolysis of the DNA as precviously described^21the [^3 H]-methylated protein was recovered and quantitated by liquid scintillation counting. […]
The mice in the tests shown in FIGS. 17 and 18 were BALB-C derived athymic male mice (nu/nu athymic) from the in-house breeding colony at the Paterson Institute for Cancer Research as described above (Animal Services Unit-ASU Mice).
Animals were given a single dose of B.4280 (10 mg/kg i.p.) and sacrificed

[2] = test system: human melanoma xenografts; test: Sensitization of human melanoma xenografts to temozolomide; type: in vivo, nude mice; conditions: for sensitizing human melanoma xenografts to growth inhibitory effects of temozolomide, in words: inactivator i.p. 1 hour before temozolomide 100 mg/kg i.p., five consecutive days (FIGS. 21A, 22A)
Description: Xenograft tumour measurements were taken every 1-2 days by workers using digital calipers. Tumour volume was calculated using the formula (h×w×l)π/6. The experimental animals were also weighed every 1-2 days. Measurements continued until tumours in the control animals reached the maximum allowable volume (i.e. 1 cm×1 cm×1 cm).
Mice were treated with the inactivator as a suspension in corn oil by intraperitoneal injection (i.p.) or by oral gavage (p.o.) 60 mins prior to temozolomide (100 mg/kg in 20% DMSO in phosphate-buffered saline) which was always given by intraperitoneal injection: this schedule was repeated on days 1 to 5 inclusive. Controls received vehicle alone, inactivator alone or temozolomide alone.
The mice in the tests shown in FIGS. 19-24 were Swiss mouse derived athymic male mice ([…]) from ZENECA Pharmaceuticals, Mereside, Alderley Park, Macclesfield, Cheshire SK10 4T6, England.

Raji cells = test: Sensitization of Raji cells to temozolomide (XTT assay); type: cell-based, human
Description: Following a 2 hour incubation at 37° C., medium containing either increasing doses of BCNU, temozolomide or equivalent vehicle was added and the cells allowed to grow for 6 days. At this time XTT solution was added and the cells incubated for a further 4 hours at 37° C. The resulting red/orange formazan reaction product was quantified by measuring absorption at 450 nm on a microtitre platereader.

## Nc1nc(OCc2cccs2)c2nc[nH]c2n1 [B.4205, 0^6 -thenylguanine]
Recombinant human ATase
  ATase inactivation in vitro, result in words: considerably better; also recorded: I50 values lower than that of BeG
DBA2 mice
  acute toxicity in combination with temozolomide in DBA2 mice, in words: less acutely toxic than BeG
[1]
  ATase inactivation in tumour xenografts, in words: more effective in ATase inactivation in tumour xenografts than either agent alone and 10 mg/kg being ag ettentive as 60 mg/kg
ATase
  inactivation of ATase in mouse tissues, in words: able to inactivate ATase in most mouse tissues examined but there was less inactivation in brain than other tissues
[2]
  sensitizing human melanoma xenografts to growth inhibitory effects of temozolomide, in words: effective in sensitizing
Raji cells; 0.1 μM inactivator (FIG. 3)
  sensitising Raji cells to growth inhibitory effects of temozolomide, in words: more effective than BeG
Raji cells; 0.1-5.0 μM inactivator (FIGS. 3, 4)
  dose response of Raji sensitization to temozolomide, in words: lack of dose response

## Nc1nc(OCc2cc(Br)cs2)c2nc[nH]c2n1 [B.4280, O^6-(4-bromothenyl)guanine]
Recombinant human ATase
  IC50: 3.4 nM
  ATase inactivation in vitro, result in words: more efficient in inactivating ATase in vitro than its 5-bromo analogue B.4269; also recorded: more efficient than the unsubstituted thenyl derivative B.4205
DBA2 mice
  acute toxicity in combination with temozolomide in DBA2 mice, in words: less acutely toxic than BeG; also recorded: less acutely toxic than B.4205
[1]
  ATase inactivation in tumour xenografts, in words: more effective in ATase inactivation in tumour xenografts than either agent alone; also recorded: more effective than B.4205 at equivalent doses
ATase; Bone Marrow (pooled), 24 h after 10 mg/kg i.p.
  ATase mean activity (fm/mg): 42 fm/mg
ATase; Bone Marrow (pooled), 48 h after 10 mg/kg i.p.
  ATase mean activity (fm/mg): 61 fm/mg
ATase; Brain, 24 h after 10 mg/kg i.p.
  ATase mean activity (fm/mg): 13.7 ± 2.05 fm/mg
ATase; Brain, 48 h after 10 mg/kg i.p.
  ATase mean activity (fm/mg): 16.3 ± 1.25 fm/mg
ATase; Kidney, 24 h after 10 mg/kg i.p.
  ATase mean activity (fm/mg): 24.3 ± 4.03 fm/mg
ATase; Kidney, 48 h after 10 mg/kg i.p.
  ATase mean activity (fm/mg): 28.7 ± 4.11 fm/mg
ATase; Liver, 24 h after 10 mg/kg i.p.
  ATase mean activity (fm/mg): 89.7 ± 10.14 fm/mg
ATase; Liver, 48 h after 10 mg/kg i.p.
  ATase mean activity (fm/mg): 100.7 ± 8.73 fm/mg
ATase; Lung, 24 h after 10 mg/kg i.p.
  ATase mean activity (fm/mg): 15.3 ± 2.05 fm/mg
ATase; Lung, 48 h after 10 mg/kg i.p.
  ATase mean activity (fm/mg): 24 ± 2.83 fm/mg
ATase; Spleen, 24 h after 10 mg/kg i.p.
  ATase mean activity (fm/mg): 41 ± 5.35 fm/mg
ATase; Spleen, 48 h after 10 mg/kg i.p.
  ATase mean activity (fm/mg): 68.3 ± 9.53 fm/mg
ATase; Testis, 24 h after 10 mg/kg i.p.
  ATase mean activity (fm/mg): 45 ± 7.48 fm/mg
ATase; Testis, 48 h after 10 mg/kg i.p.
  ATase mean activity (fm/mg): 44 ± 1.41 fm/mg
ATase
  inactivation of ATase in mouse tissues, in words: able to inactivate ATase in most tissues
[2]; 30 mg/kg p.o. vs 20 mg/kg i.p. (FIG. 24A)
  oral versus i.p. administration in sensitizing xenografts to temozolomide, in words: almost as effective as i.p. administration
[2]
  sensitizing human melanoma xenografts to growth inhibitory effects of temozolomide, in words: effective in sensitizing; also recorded: about twice as effective as B.4205
Raji cells; 0.5 μM inactivator, 2 hours before temozolomide (FIG. 16)
  sensitization of Raji cells to temozolomide, in words: much more effective than either B.4205 or BeG
